Experimental data reported in patent publication US7304093B2, “Ketone compounds and compositions for cholesterol management and related uses” (Esperion Therapeutics, Inc., priority 2000, dated 2007).
Like-named read-outs stand apart in the source and are kept apart here.

Assays:
female obese Zucker rats = test: Serum lipid and glycemic control variables in chow-fed obese female Zucker rats, daily oral gavage for two weeks; format: in vivo, rat; conditions: Rattus norvegicus, Table 9; for change in vivo at 100 mg/kg: 100 mg/kg daily oral; for change in vivo at 30 mg/kg: 30 mg/kg daily oral
Protocol: Ten- to twelve-week old (400-500 grams) female Zucker fatty rats Cr1: (Zuc)-faBR were obtained from Charles River Laboratories. Animals were acclimated to the laboratory environment for seven days. During the acclimation and study period, animals were housed by group in shoebox polycarbonate cages on Cellu-Dri bedding. The temperature and humidity in the animals' quarters (68-78° F.; 30-75% RH) were monitored and the airflow in the room was sufficient to provide several exchanges per hour with 100% fresh filtered air. An automatic timing device provided an alternating 12-hour cycle of light and dark. Rats received pelleted Purina Laboratory Rodent Chow® (5001) prior to and during the drug intervention period except for a 6-hour phase prior to blood sampling. Fresh water was supplied ad libitum via an automatic watering system. Compounds were dissolved, suspended by mixing in a dosing vehicle consisting of 1.5% carboxymethylcellulose/0.2% Tween 20 or 20% ethanol and 80% polyethylene glycol-200 [v/v]. Dose volume of vehicle or vehicle plus each compound was set at 0.25% of body weight in order to deliver the appropriate dose. Doses were administered daily by oral gavage, approximately between 8-10 AM. Regarding blood sampling, animals were fasted for 6 hours prior to all blood collections. Prior to and after 7 days of dosing, a 1.0- to 2.0-mL sample of blood was collected by administering O2/CO2 anesthesia and bleeding from the orbital venous plexus. Following 14 days of dosing, blood was collected by cardiac puncture after euthanasia with CO2. All blood samples were processed for separation of serum and stored at −80° C. until analysis. Commercially available kits were used to determine serum triglycerides (Roche Diagnostic Corporation, Kit No. 148899 or Boehringer Mannheim, Kit No. 1488872), total cholesterol (Roche Diagnostic Corporation, Kit No. 450061), non-esterified fatty acids (Wako Chemicals, Kit No. 994-75409) and β-hydroxybutyrate (Wako Chemicals, Kit No. 417-73501 or Sigma Kit. No. 310-0) on a Hitachi 912 Automatic Analyzer (Roche Diagnostic Corporation). In some instances, an in-house cholesterol reagent was used to determine total serum cholesterol levels. Serum lipoprotein cholesterol levels were determined by lipoprotein profile analysis. Lipoprotein profiles were analyzed using gel-filtration chromatography on a Superose 6HR (1×30 cm) column equipped with on-line detection of total cholesterol as described by Kieft et al (Kieft, K. A.; Bocan, T. M.; Krause, B. R. Rapid on-line determination of cholesterol distribution among plasma lipoproteins after high-performance gel filtration chromatography. J. Lipid Res. 1991, 32, 859-866.). The total cholesterol content of each lipoprotein was calculated by multiplying the independent values determined for serum total cholesterol by the percent area of each lipoprotein in the profile. The percent body weight gain and the ratio of liver to body weight is also determined. Selected data are shown as absolute values or as a percent change of the pretreatment values in Tables 8 and 9.
Select compounds (214c, 210c, and 210g) were further evalutated in the Zucker rat by performing a full dose response and measuring additional scrum variables including markers for diabetes (Tables 10-12).

primary rat hepatocytes = test: Inhibition of lipid synthesis ([1-14C]-acetate incorporation) in primary cultures of rat hepatocytes; format: cell-based; conditions: Hepatocyte, 4 h incubation with [1-14C]-acetate
Protocol: Compounds were tested for inhibition of lipid synthesis in primary cultures of rat hepatocytes. Male Sprague-Dawley rats were anesthetized with intraperitoneal injection of sodium pentobarbital (80 mg/kg). Rat hepatocytes were isolated essentially as described by the method of Seglen (Seglen, P. O. Hepatocyte suspensions and cultures as tools in experimental carcinogenesis. J. Toxicol. Environ. Health 1979, 5, 551-560). Hepatocytes were suspended in Dulbecco's Modified Eagles Medium containing 25 mM D-glucose, 14 mM HEPES, 5 mM L-glutamine, 5 mM leucine, 5 mM alanine, 10 mM lactate, 1 mM pyruvate, 0.2% bovine serum albumin, 17.4 mM non-essential amino acids, 20% fetal bovine serum, […] and 20 μg/mL gentamycin) and plated at a density of 1.5×10^5 cells/cm^2 on collagen-coated 96-well plates. Four hours after plating, media was replaced with the same media without serum. Cells were grown overnight to allow formation of monolayer cultures. Lipid synthesis incubation conditions were initially assessed to ensure the linearity of [1-^14C]-acetate incorporation into hepatocyte lipids for up to 4 hours. Hepatocyte lipid synthesis inhibitory activity was assessed during incubations in the presence of 0.25 μCi [1-^14C]-acetate/well (final radiospecific activity in assay is 1 Ci/mol) and 0, 1, 3, 10, 30, 100 or 300 μM of compounds for 4 hours. At the end of the 4-hour incubation period, medium was discarded and cells were washed twice with ice-cold phosphate buffered saline and stored frozen prior to analysis. To determine total lipid synthesis, 170 μl of MicroScint-E® and 50 μl water was added to each well to extract and partition the lipid soluble products to the upper organic phase containing the scintillant. Lipid radioactivity was assessed by scintillation spectroscopy in a Packard TopCount NXT.

[1] = 168 h, 1 wk, read-out: HDL-Cholesterol, Percent Change from Pre-Treatment
[2] = 168 h, 1 wk, read-out: NonHDL-Cholesterol, Percent Change from Pre-Treatment
[3] = 168 h, 1 wk, read-out: TG, Percent Change from Pre-Treatment
[4] = 336 h, 2 wk, read-out: HDL-Cholesterol, Percent Change from Pre-Treatment
[5] = 336 h, 2 wk, read-out: NonHDL-Cholesterol, Percent Change from Pre-Treatment
[6] = 336 h, 2 wk, read-out: TG, Percent Change from Pre-Treatment
[7] = Table 7, ranges: confidence of estimate insufficient to assign a value

SMILES | change in vivo at 100 mg/kg (female obese Zucker rats; [1]) [%] | change in vivo at 100 mg/kg (female obese Zucker rats; [2]) [%] | change in vivo at 100 mg/kg (female obese Zucker rats; [3]) [%] | change in vivo at 100 mg/kg (female obese Zucker rats; [4]) [%] | change in vivo at 100 mg/kg (female obese Zucker rats; [5]) [%] | change in vivo at 100 mg/kg (female obese Zucker rats; [6]) [%] | IC50 (primary rat hepatocytes; [7]) [µM] | change in vivo at 30 mg/kg (female obese Zucker rats; [1]) [%] | change in vivo at 30 mg/kg (female obese Zucker rats; [2]) [%] | change in vivo at 30 mg/kg (female obese Zucker rats; [3]) [%] | change in vivo at 30 mg/kg (female obese Zucker rats; [4]) [%] | change in vivo at 30 mg/kg (female obese Zucker rats; [5]) [%] | change in vivo at 30 mg/kg (female obese Zucker rats; [6]) [%] | IC50 (primary rat hepatocytes; Table 6) [µM]
CC(CCCCC(=O)CCCCC(C)(C(=O)O)c1ccccc1)(C(=O)O)c1ccccc1 (centres unmarked) [Compound 210d, 2,12-Dimethyl-7-oxo-2,12-diphenyltridecanedioic acid] | 43 | 36 | -36 | 45 | 79 | -8 |  |  |  |  |  |  |  | 
CC(C)(CO)Cc1cccc(C(=O)c2cccc(CC(C)(C)CO)c2)c1 [Compound 232, Bis[3-(3-hydroxy-2,2-dimethylpropyl)-phenyl]-methanone] | 1 | -15 | -29 | -11 | -5 | -8 | 52 |  |  |  |  |  |  | 
CC(C)(CO)CCCCCCC(=O)CCCCCCC(C)(C)CO [Compound 214i, 1,17-Dihydroxy-2,2,16,16-tetramethylheptadecan-9-one] |  |  |  |  |  |  | 2 | 85 | -50 | -58 | 61 | -32 | -33 | 
CC(C)(CO)CCCCCC(=O)CCCCC(C)(C)CO [Compound 219, 1,14-Dihydroxy-2,2,13,13-tetramethyltetradecan-7-one] | 78 | -70 | -85 | 78 | -78 | -87 | 2 |  |  |  |  |  |  | 
CC(C)(CO)CCCCCC(=O)CCCCCC(C)(C)CO [Compound 214g, 1,15-Dihydroxy-2,2,14,14-tetramethylpentadecan-8-one] | 76 | -91 | -92 | 135 | -88 | -92 | 3 |  |  |  |  |  |  | 
CC(CO)(CCCCC(=O)CCCCC(C)(CO)c1ccccc1)c1ccccc1 (centres unmarked) [Compound 214d, 1,13-Dihydroxy-2,12-dimethyl-2,12-diphenyltridecan-7-one] |  |  |  |  |  |  | 100 to 300 | -1 | -30 | -24 | -27 | 30 | 20 | 
CC(CO)(CCCCCC(=O)CCCCCC(C)(CO)c1ccccc1)c1ccccc1 (centres unmarked) [Compound 214h, 1,15-Dihydroxy-2,14-dimethyl-2,14-diphenylpentadecan-8-one] | 2 | 29 | 24 | 10 | 9 | 1 | 93 |  |  |  |  |  |  | 
CC(C)(CO)CCCCC(=O)CCCC(C)(C)CO [Compound 217, 1,12-Dihydroxy-2,2,11,11-tetramethyldodecan-6-one] | 46 | -26 | -40 | 48 | 4 | -11 | 3 to 10 |  |  |  |  |  |  | 
CC(C)(CCCCCCC(=O)CCCCCCC(C)(C)C(=O)O)C(=O)O [Compound 210i, 2,2,16,16-Tetramethyl-9-oxoheptadecanedioic acid] |  |  |  |  |  |  | 9 |  |  |  |  |  |  | 
Cc1ccc(C(C)(CO)CCCCC(=O)CCCCC(C)(CO)c2ccc(C)cc2)cc1 (centres unmarked) [Compound 214e, 1,13-Dihydroxy-2,12-dimethyl-2,12-di-p-tolyltridecan-7-one] |  |  |  |  |  |  | 100 to 300 |  |  |  |  |  |  | 
CCOC(=O)C(C)(C)CCCCCCCC(=O)CCCCCCCC(C)(C)C(=O)OCC [Compound 106n, Diethyl 10-oxo-2,2,18,18-tetramethyl-nonadecanedioate] |  |  |  |  |  |  |  |  |  |  |  |  |  | 13
CC(C)Cc1ccc(C(C)(CO)CCCCC(=O)CCCCC(C)(CO)c2ccc(CC(C)C)cc2)cc1 (centres unmarked) [Compound 214f, 1,13-Dihydroxy-2,12-bis-(4-isobutylphenyl)-2,12-dimethyltridecan-7-one] | -5 | 28 | -11 | 6 | 34 | -15 |  |  |  |  |  |  |  | 
CC(C)(CO)CCCCC(=O)CCCCC(C)(CO)c1ccccc1 (centres unmarked) [Compound 218, 1,13-Dihydroxy-2,2,12-trimethyl-12-phenyltridecan-7-one] |  |  |  |  |  |  | 1 | -18 | 17 | 18 | -5 | -8 | -7 | 
CC(CO)(CCCC(=O)CCCC(C)(CO)c1ccccc1)c1ccccc1 (centres unmarked) [Compound 214b, 1,11-Dihydroxy-2,10-dimethyl-2,10-diphenylundecan-6-one] | -14 | -18 | -20 | -11 | -32 | -17 | 100 to 300 |  |  |  |  |  |  | 
CC(C)(C)OC(=O)C1(CCCCC(=O)CCCCC2(C(=O)OC(C)(C)C)CC2)CC1 [Compound 106d, t-Butyl 1-[9-[1-(tert-butoxycarbonyl)cyclopropyl]-5-oxononyl]-1-cyclopropanecarboxylate] |  |  |  |  |  |  |  |  |  |  |  |  |  | 35
CC(C)Cc1ccc(C(C)(CCCCC(=O)CCCCC(C)(C(=O)O)c2ccc(CC(C)C)cc2)C(=O)O)cc1 (centres unmarked) [Compound 210f, 2,12-Bis-(4-isobutylphenyl)-2,12-dimethyl-7-oxotridecanedioic acid] | 11 | -40 | -63 | 62 | -44 | -66 | 100 to 300 |  |  |  |  |  |  | 
